{"source": "ChEMBL document CHEMBL1177724", "about": "“Design, synthesis, and structure-activity relationship studies of novel 2,4,6-trisubstituted-5-pyrimidinecarboxylic acids as peroxisome proliferator-activated receptor gamma (PPARgamma) partial agonists with comparable antidiabetic efficacy to rosiglitazone” (J Med Chem, 2010)", "key": {"[1]": {"molecular_target": "T1, Peroxisome proliferator-activated receptor gamma (Homo sapiens, UniProt P37231)", "T1 sequence (P37231 whole entry)": "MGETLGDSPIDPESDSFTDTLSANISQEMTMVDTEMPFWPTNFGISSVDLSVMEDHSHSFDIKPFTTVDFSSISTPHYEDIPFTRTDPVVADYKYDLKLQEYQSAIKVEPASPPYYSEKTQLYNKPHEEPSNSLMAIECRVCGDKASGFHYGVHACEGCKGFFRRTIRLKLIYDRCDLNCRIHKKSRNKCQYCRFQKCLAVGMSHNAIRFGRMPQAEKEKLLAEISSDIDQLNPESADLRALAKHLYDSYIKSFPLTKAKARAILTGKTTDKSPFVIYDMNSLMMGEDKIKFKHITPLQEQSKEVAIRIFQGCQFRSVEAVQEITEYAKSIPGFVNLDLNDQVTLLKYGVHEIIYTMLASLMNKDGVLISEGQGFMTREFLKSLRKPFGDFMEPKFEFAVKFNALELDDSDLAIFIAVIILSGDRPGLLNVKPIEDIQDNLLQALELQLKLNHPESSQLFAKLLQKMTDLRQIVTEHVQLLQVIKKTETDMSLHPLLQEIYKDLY", "description": "Partial agonist activity at human PPARgamma-LBD expressed in CHO-K1 cells co-transfected with GAL4 assessed as luciferase activity by transactivation assay"}, "[2]": {"molecular_target": "T2, Peroxisome proliferator-activated receptor gamma (Homo sapiens) (UniProt P37231)", "T2 sequence (whole entry)": "T1 sequence (P37231 whole entry)", "assay": "Partial agonist activity at human PPARgamma-LBD expressed in CHO-K1 cells co-transfected with GAL4 assessed as luciferase activity at 10 uM by transactivation assay", "assay_type": "functional, cell-based"}, "[3]": {"assay": "Solubility in water", "assay_type": "physicochemical"}, "Mus musculus [4]": {"tested_on": "Mus musculus", "assay": "Antidiabetic activity in db/db mouse assessed as weight gain at 10 to 100 mg/kg, po qd for 7 days", "assay_type": "functional, organism-based"}, "[5]": {"molecular_target": "T3, Peroxisome proliferator-activated receptor gamma (Rattus norvegicus, UniProt O88275)", "T3 sequence (O88275 whole entry)": "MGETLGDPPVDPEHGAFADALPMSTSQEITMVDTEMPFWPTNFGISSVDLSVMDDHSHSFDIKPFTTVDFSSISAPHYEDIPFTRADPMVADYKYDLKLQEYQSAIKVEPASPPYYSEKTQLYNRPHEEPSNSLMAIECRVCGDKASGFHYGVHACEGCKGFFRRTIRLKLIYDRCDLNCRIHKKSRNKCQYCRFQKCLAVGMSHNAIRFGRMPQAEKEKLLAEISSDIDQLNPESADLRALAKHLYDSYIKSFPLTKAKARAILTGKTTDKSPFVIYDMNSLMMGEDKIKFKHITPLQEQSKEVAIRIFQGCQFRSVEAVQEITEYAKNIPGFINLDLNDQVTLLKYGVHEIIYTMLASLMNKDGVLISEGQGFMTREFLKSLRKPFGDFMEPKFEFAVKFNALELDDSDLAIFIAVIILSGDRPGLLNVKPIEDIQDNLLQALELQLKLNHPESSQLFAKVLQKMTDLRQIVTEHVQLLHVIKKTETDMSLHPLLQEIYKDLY", "description": "Antagonist activity at rat PPARgamma-LBD expressed in CHO-K1 cells co-transfected with GAL4 assessed as inhibition of rosiglitazone-induced luciferase activity by transactivation assay"}, "[6]": {"assay": "Plasma concentration in mouse at 1 mg/kg, iv after 10 mins", "assay_type": "ADME, organism-based", "design": "dose 1 mg/kg, route intravenous"}, "[7]": {"assay": "Oral bioavailability in mouse at 1 mg/kg", "assay_type": "ADME, organism-based", "settings": "in vivo"}, "[8]": {"molecular_target": "T3, Peroxisome proliferator-activated receptor gamma", "remark": "listed apart in the source", "description": "Partial agonist activity at rat PPARgamma-LBD expressed in CHO-K1 cells co-transfected with GAL4 assessed as luciferase activity by transactivation assay"}, "Mus musculus [9]": {"tested_on": "Mus musculus", "assay": "Antidiabetic activity in db/db mouse assessed as reduction of plasma glucose level at 30 mg/kg, po qd for 7 days", "assay_type": "functional", "design": "scale not given: the % may be the effect or the level left"}, "3T3-L1 [10]": {"tested_on": "3T3-L1", "assay": "Induction of adipogenesis in mouse 3T3L1 cells assessed as increase in lipid accumulation by Oil red O staining"}, "[11]": {"molecular_target": "T1, Peroxisome proliferator-activated receptor gamma", "remark": "listed apart in the source", "description": "Antagonist activity at human PPARgamma-LBD expressed in CHO-K1 cells co-transfected with GAL4 assessed as inhibition of rosiglitazone-induced luciferase activity by transactivation assay"}, "[12]": {"molecular_target": "T4, Peroxisome proliferator-activated receptor gamma (Mus musculus, UniProt P37238)", "T4 sequence (P37238 whole entry)": "T3 sequence (O88275 whole entry) with P8S, D54E, S383N", "description": "Partial agonist activity at mouse PPARgamma-LBD expressed in CHO-K1 cells co-transfected with GAL4 assessed as luciferase activity by transactivation assay"}, "Mus musculus [13]": {"tested_on": "Mus musculus", "assay": "Antidiabetic activity in db/db mouse assessed as reduction of plasma glucose level at 10 mg/kg, po qd for 7 days", "assay_type": "functional", "design": "scale not given: the % may be the effect or the level left"}, "[14]": {"assay": "Volume of distribution in mouse at 1 mg/kg, iv", "assay_type": "ADME, organism-based", "design": "dose 1 mg/kg, route intravenous", "settings": "in vivo"}, "[15]": {"assay": "AUC in mouse at 1 mg/kg, iv", "assay_type": "ADME, organism-based", "design": "dose 1 mg/kg, route intravenous", "settings": "plasma"}, "[16]": {"molecular_target": "T4, Peroxisome proliferator-activated receptor gamma", "remark": "listed apart in the source", "description": "Antagonist activity at mouse PPARgamma-LBD expressed in CHO-K1 cells co-transfected with GAL4 assessed as inhibition of rosiglitazone-induced luciferase activity by transactivation assay"}, "3T3-L1 [17]": {"tested_on": "3T3-L1", "assay": "Induction of adipogenesis in mouse blast 3T3L1 cells assessed as P2 mRNA expression level after 7 days […]", "assay_type": "cell-based", "settings": "3t3-l1, 168 h"}, "[18]": {"assay": "Clearance in mouse at 1 mg/kg, iv", "assay_type": "ADME, organism-based", "design": "dose 1 mg/kg, route intravenous", "settings": "in vivo"}, "[19]": {"assay": "Half life in mouse at 1 mg/kg, iv", "assay_type": "ADME, organism-based", "design": "dose 1 mg/kg, route intravenous", "settings": "in vivo"}, "[20]": {"assay": "AUC in mouse at 1 mg/kg, po", "assay_type": "ADME, organism-based", "design": "dose 1 mg/kg, route oral", "settings": "plasma"}, "Mus musculus [21]": {"tested_on": "Mus musculus", "assay": "Antidiabetic activity in db/db mouse assessed as reduction of plasma glucose level at 100 mg/kg, po qd for 7 days", "assay_type": "functional", "design": "scale not given: the % may be the effect or the level left"}, "3T3-L1 [22]": {"tested_on": "3T3-L1", "assay": "Induction of adipogenesis in mouse mature 3T3L1 cells assessed as P2 mRNA expression level after 10 days […]", "assay_type": "cell-based", "settings": "3t3-l1, 240 h"}, "Mus musculus [23]": {"tested_on": "Mus musculus", "assay": "Antidiabetic activity in db/db mouse assessed as weight gain at 3 to 10 mg/kg, po qd for 7 days", "assay_type": "functional, organism-based"}, "[24]": {"molecular_target": "T2, Peroxisome proliferator-activated receptor gamma (Homo sapiens)", "assay": "Partial agonist activity at human PPARgamma-LBD expressed in CHO-K1 cells co-transfected with GAL4 assessed as luciferase activity at […] by transactivation assay relative to rosiglitazone", "assay_type": "functional, cell-based"}}, "note": "Positions count from the first letter of the chain named. The source made the active and inactive calls. The calls are words filed in the database; no cut-off is given here.", "data": [{"smiles": "CSc1nc(NCC2CCCCC2)c(C(=O)O)c(SCc2ccccc2)n1", "values": [{"measurement": "EC50", "setting": "[1]", "value": 300, "unit": "nM"}]}, {"smiles": "CSc1nc(C)c(C(=O)NCc2ccccc2)c(NCc2ccccc2)n1", "values": [{"measurement": "Activity", "setting": "[2]", "value": "inactive"}]}, {"smiles": "CSc1nc(NCc2ccccc2)c(C(=O)O)c(SCc2ccccc2)n1", "values": [{"measurement": "EC50", "setting": "[1]", "value": 180, "unit": "nM"}, {"measurement": "solubility", "setting": "[3]", "value": "< 1", "unit": "µg/mL"}]}, {"smiles": "CSc1nc(Cl)c(C(=O)NCc2ccccc2)c(NCc2ccccc2)n1", "values": [{"measurement": "EC50", "setting": "[1]", "value": 5000, "unit": "nM"}]}, {"smiles": "CSc1nc(SCc2ccccc2)c(C(=O)O)c(SCc2ccccc2)n1", "values": [{"measurement": "Activity", "setting": "Mus musculus [4]", "value": "inactive"}, {"measurement": "IC50", "setting": "[5]", "value": 539, "unit": "nM"}, {"measurement": "concentration at 10 min", "setting": "[6]", "value": 6890, "unit": "ng/mL"}, {"measurement": "bioavailability", "setting": "[7]", "value": 35.8, "unit": "%"}, {"measurement": "EC50", "setting": "[8]", "value": 158, "unit": "nM"}, {"measurement": "Activity", "setting": "Mus musculus [9]", "value": 56, "unit": "%"}, {"measurement": "Activity", "setting": "3T3-L1 [10]", "value": "Active"}, {"measurement": "IC50", "setting": "[11]", "value": 1790, "unit": "nM"}, {"measurement": "EC50", "setting": "[12]", "value": 158, "unit": "nM"}, {"measurement": "Activity", "setting": "Mus musculus [13]", "value": 27, "unit": "%"}, {"measurement": "Vd", "setting": "[14]", "value": 0.12, "unit": "L/kg"}, {"measurement": "AUC", "setting": "[15]", "value": 8860, "unit": "ng·h/mL"}, {"measurement": "IC50", "setting": "[16]", "value": 1770, "unit": "nM"}, {"measurement": "Activity", "setting": "3T3-L1 [17]", "value": "Not Active"}, {"measurement": "clearance", "setting": "[18]", "value": 1.88, "unit": "mL/min/kg"}, {"measurement": "EC50", "setting": "[1]", "value": 140, "unit": "nM"}, {"measurement": "half-life", "setting": "[19]", "value": 45.6, "unit": "min"}, {"measurement": "solubility", "setting": "[3]", "value": 43.7, "unit": "µg/mL"}, {"measurement": "AUC", "setting": "[20]", "value": 3170, "unit": "ng·h/mL"}, {"measurement": "Activity", "setting": "Mus musculus [21]", "value": 77, "unit": "%"}]}, {"smiles": "CSc1nc(NCc2ccccn2)c(C(=O)O)c(SCc2ccccc2)n1", "values": [{"measurement": "EC50", "setting": "[1]", "value": 250, "unit": "nM"}]}, {"smiles": "CSc1nc(NC2CC2)c(C(=O)O)c(SCc2ccccc2)n1", "values": [{"measurement": "EC50", "setting": "[1]", "value": 1800, "unit": "nM"}]}, {"smiles": "O=C(O)c1c(NCc2ccccc2)ncnc1SCc1ccccc1", "values": [{"measurement": "EC50", "setting": "[1]", "value": "> 10000", "unit": "nM"}]}, {"smiles": "CSc1nc(NCc2ccccc2)c(C(=O)O)c(OCc2ccccc2)n1", "values": [{"measurement": "EC50", "setting": "[1]", "value": 2300, "unit": "nM"}]}, {"smiles": "CCCCNc1nc(NCc2ccccc2)c(C(=O)O)c(SCc2ccccc2)n1", "values": [{"measurement": "EC50", "setting": "[1]", "value": 470, "unit": "nM"}]}, {"smiles": "CN(CCOc1ccc(CC2SC(=O)NC2=O)cc1)c1ccccn1", "note": "(stereo not drawn) [ROSIGLITAZONE]", "values": [{"measurement": "Activity", "setting": "3T3-L1 [10]", "value": "Active"}, {"measurement": "Activity", "setting": "3T3-L1 [22]", "value": "Dose-dependent effect"}, {"measurement": "Activity", "setting": "Mus musculus [13]", "value": 67, "unit": "%"}, {"measurement": "Activity", "setting": "3T3-L1 [17]", "value": "Dose-dependent effect"}, {"measurement": "Activity", "setting": "Mus musculus [23]", "value": "inactive"}]}, {"smiles": "CSc1nc(NCc2ccncc2)c(C(=O)O)c(SCc2ccccc2)n1", "values": [{"measurement": "EC50", "setting": "[1]", "value": 2700, "unit": "nM"}]}, {"smiles": "CSc1nc(NCCc2ccccc2)c(C(=O)O)c(SCc2ccccc2)n1", "values": [{"measurement": "EC50", "setting": "[1]", "value": 670, "unit": "nM"}]}, {"smiles": "CSc1nc(NCc2ccccc2)c(C(=O)O)c(-c2cccs2)n1", "values": [{"measurement": "Activity", "setting": "[24]", "value": "inactive"}, {"measurement": "EC50", "setting": "[1]", "value": "> 10000", "unit": "nM"}]}, {"smiles": "CSc1nc(Nc2ccccc2)c(C(=O)O)c(SCc2ccccc2)n1", "values": [{"measurement": "EC50", "setting": "[1]", "value": 1600, "unit": "nM"}]}, {"smiles": "CCCCN(CCCC)c1nc(NCc2ccccc2)c(C(=O)O)c(SCc2ccccc2)n1", "values": [{"measurement": "EC50", "setting": "[1]", "value": "> 10000", "unit": "nM"}]}, {"smiles": "CNc1nc(SC)nc(SCc2ccccc2)c1C(=O)O", "values": [{"measurement": "EC50", "setting": "[1]", "value": "> 10000", "unit": "nM"}]}, {"smiles": "CCCCCCCCSc1nc(NCc2ccccc2)c(C(=O)O)c(SCc2ccccc2)n1", "values": [{"measurement": "EC50", "setting": "[1]", "value": 950, "unit": "nM"}]}, {"smiles": "CCCCN(C)c1nc(NCc2ccccc2)c(C(=O)O)c(SCc2ccccc2)n1", "values": [{"measurement": "EC50", "setting": "[1]", "value": 420, "unit": "nM"}]}, {"smiles": "CCCNc1nc(SC)nc(SCc2ccccc2)c1C(=O)O", "values": [{"measurement": "EC50", "setting": "[1]", "value": "> 10000", "unit": "nM"}]}, {"smiles": "CSc1nc(NCc2cccnc2)c(C(=O)O)c(SCc2ccccc2)n1", "values": [{"measurement": "EC50", "setting": "[1]", "value": 740, "unit": "nM"}]}, {"smiles": "CCCCSc1nc(NCc2ccccc2)c(C(=O)O)c(SCc2ccccc2)n1", "values": [{"measurement": "EC50", "setting": "[1]", "value": 550, "unit": "nM"}]}, {"smiles": "CCCCCCCNc1nc(NCc2ccccc2)c(C(=O)O)c(SCc2ccccc2)n1", "values": [{"measurement": "EC50", "setting": "[1]", "value": 250, "unit": "nM"}]}]}
